Molecular target: T1, sGC α1/β1 heterodimer (Homo sapiens, UniProt Q02108+Q02153)
T1 construct: expressed in transfected cells; host or cells: CHO-K1 (clone #7, CHO-K1/sGC)
T1 sequence (Q02108 1-690): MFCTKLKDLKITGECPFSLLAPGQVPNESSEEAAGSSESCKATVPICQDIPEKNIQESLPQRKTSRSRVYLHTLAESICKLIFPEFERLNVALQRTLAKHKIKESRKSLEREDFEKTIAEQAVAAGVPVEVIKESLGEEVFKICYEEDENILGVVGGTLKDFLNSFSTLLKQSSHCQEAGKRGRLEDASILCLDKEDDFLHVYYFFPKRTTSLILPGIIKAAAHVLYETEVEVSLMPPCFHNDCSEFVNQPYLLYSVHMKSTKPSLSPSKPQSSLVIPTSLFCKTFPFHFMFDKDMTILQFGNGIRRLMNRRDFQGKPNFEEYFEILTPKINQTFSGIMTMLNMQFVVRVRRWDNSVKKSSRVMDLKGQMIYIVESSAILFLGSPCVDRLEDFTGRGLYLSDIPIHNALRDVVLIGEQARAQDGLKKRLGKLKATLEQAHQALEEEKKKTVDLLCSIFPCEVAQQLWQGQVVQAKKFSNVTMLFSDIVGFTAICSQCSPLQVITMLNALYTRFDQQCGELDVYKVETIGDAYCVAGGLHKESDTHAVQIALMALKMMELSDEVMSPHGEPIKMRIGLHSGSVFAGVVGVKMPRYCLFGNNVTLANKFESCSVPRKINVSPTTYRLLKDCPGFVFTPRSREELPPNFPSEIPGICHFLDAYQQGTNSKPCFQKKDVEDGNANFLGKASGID
T1 sequence (Q02153 1-619): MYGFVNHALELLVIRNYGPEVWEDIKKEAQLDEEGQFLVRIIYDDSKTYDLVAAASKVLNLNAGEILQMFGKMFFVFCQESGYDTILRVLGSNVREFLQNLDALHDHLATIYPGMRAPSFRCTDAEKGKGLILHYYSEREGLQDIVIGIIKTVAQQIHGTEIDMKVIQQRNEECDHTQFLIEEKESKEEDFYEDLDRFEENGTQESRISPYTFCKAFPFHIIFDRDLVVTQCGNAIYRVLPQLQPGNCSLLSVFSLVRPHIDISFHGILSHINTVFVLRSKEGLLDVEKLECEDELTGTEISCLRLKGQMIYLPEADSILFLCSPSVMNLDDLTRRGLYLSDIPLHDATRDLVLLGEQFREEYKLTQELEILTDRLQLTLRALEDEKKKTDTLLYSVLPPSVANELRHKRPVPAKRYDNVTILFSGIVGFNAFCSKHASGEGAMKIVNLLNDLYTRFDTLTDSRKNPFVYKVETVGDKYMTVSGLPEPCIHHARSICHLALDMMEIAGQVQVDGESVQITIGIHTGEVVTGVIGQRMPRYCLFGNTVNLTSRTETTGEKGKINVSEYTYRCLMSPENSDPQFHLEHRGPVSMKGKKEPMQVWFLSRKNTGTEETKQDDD
Test: Cell-based sGC functional assay (CASA assay): cGMP generation in CHO-K1/sGC cells, HTRF detection
Conditions: for Emax: CHO-K1, percent activation relative to standard Compound A in CHO-K1/sGC cells, read-out: % Act.; for EC50: inflection point (IP) of cGMP generation in CHO-K1/sGC cells, 4P fit, activity expressed as percentage of Compound A
Summary of the method: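 Stable CHO-K1/sGC cells in EBSS buffer with 5 mM MgCl2, 0.05% BSA and 0.5 mM IBMX were incubated with compound (2.5% DMSO final) ±1 μM DETA-NO for 1 hr at 37° C. cGMP was measured by HTRF. Activation is expressed as % of reference HDA Compound A maximum, with IP and max fold induction from a 4P fit.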

| Compound | Emax [%] | EC50 [nM] | % Act. (percent activation relative to standard Compound A in CHO-K1/sGC cells) [%] |
| --- | --- | --- | --- |
| CC1(C2CC2)C(=O)Nc2nc(-c3cn4ccnc4c(Cc4ccccc4)n3)nc(N)c21 (single isomer, unassigned) [Example 82B, 4-amino-2-(8-benzylimidazo[1,2-a]pyrazin-6-yl)-5-cyclopropyl-5-methyl-5H-pyrrolo[2,3-d]pyrimidin-6(7H)-one] | 114 | 473 |  |
| Cn1nnnc1C1(C2CC2)C(=O)Nc2nc(-c3cn4ccnc4c(CCC(F)(F)C(F)(F)F)n3)nc(N)c21 (single isomer, unassigned) [Example 325A, 4-amino-5-cyclopropyl-5-(1-methyl-1H-tetrazol-5-yl)-2-(8-(3,3,4,4,4-pentafluorobutyl)imidazo[1,2-a]pyrazin-6-yl]-5H-pyrrolo[2,3-d]pyrimidin-6(7H)-one] | 83 | 1210 |  |
| CC1(c2ccc(F)cc2)C(=O)Nc2nc(-c3cn4ccnc4c(CCCc4ccccc4)n3)nc(N)c21 (stereo not shown) [Example 5A] | 109 | 849 |  |
| COCCNc1nc(-c2cn3ccnc3c(CCC(F)(F)C(F)(F)F)n2)nc2c1C(C)(c1ccc(F)cc1)C(=O)N2 (stereo not shown) [Example 309A, 5-(4-fluorophenyl)-4-((2-methoxyethyl)amino)-5-methyl-2-(8-(3,3,4,4,4-pentafluorobutyl)imidazo[1,2-a]pyrazin-6-yl)-5H-pyrrolo[2,3-d]pyrimidin-6(7H)-one] | 97 | 39 |  |
| CCC(CC)Cc1nc(-c2nc(N)c3c(n2)NC(=O)C3(C)c2ccc(Cl)cc2)cn2ccnc12 (stereo not shown) [Example 9A, 4-amino-5-(4-chlorophenyl)-2-(8-(2-ethylbutyl)imidazo[1,2-a]pyrazin-6-yl)-5-methyl-5H-pyrrolo[2,3-d]pyrimidin-6(7H)-one] | 134 | 60 |  |
| Nc1nc(-c2cn3ccnc3c(Cc3ccccc3)n2)nc2c1C(C(=O)NC1CC1)(C1CC1)C(=O)N2 (single isomer, unassigned) [Example 40B, 4-amino-2-(8-benzylimidazo[1,2-a]pyrazin-6-yl)-N,5-dicyclopropyl-6-oxo-6,7-dihydro-5H-pyrrolo[2,3-d]pyrimidine-5-carboxamide] | 127 | 27 |  |
| CC1(C(=O)NC2CC2)C(=O)Nc2nc(-c3cn4ccnc4c(Cc4cccc(F)c4)n3)nc(N)c21 (single isomer, unassigned) [Example 36A, 4-amino-N-cyclopropyl-2-(8-(3-fluorobenzyl)imidazo[1,2-a]pyrazin-6-yl)-5-methyl-6-oxo-6,7-dihydro-5H-pyrrolo[2,3-d]pyrimidine-5-carboxamide] |  | 304 | 151 |
| CC1(c2ccc(F)cc2)C(=O)Nc2nc(-c3cn4cc(C(F)(F)F)nc4c(Cc4ccccc4F)n3)nc(N)c21 (stereo not shown) [Example 147A, 4-amino-2-(8-(2-fluorobenzyl)-2-(trifluoromethyl)imidazo[1,2-a]pyrazin-6-yl)-5-(4-fluorophenyl)-5-methyl-5H-pyrrolo[2,3-d]pyrimidin-6(7H)-one] | 120 | 12 |  |
| Cn1cc(C2(C)C(=O)Nc3nc(-c4cn5ccnc5c(Cc5ccc(F)cc5)n4)nc(N)c32)nn1 (stereo not shown) [Example 65A, 4-amino-2-(8-(4-fluorobenzyl)imidazo[1,2-a]pyrazin-6-yl)-5-methyl-5-(1-methyl-1H-1,2,3-triazol-4-yl)-5H-pyrrolo[2,3-d]pyrimidin-6(7H)-one] | 108 | 256 |  |
| CC1(c2ccc(F)cc2)C(=O)Nc2nc(-c3cn4c(Cl)cnc4c(CCC(F)(F)F)n3)nc(N)c21 (stereo not shown) [Example 258A, 4-amino-2-(3-chloro-8-(3,3,3-trifluoropropyl)imidazo[1,2-a]pyrazin-6-yl)-5-(4-fluorophenyl)-5-methyl-5H-pyrrolo[2,3-d]pyrimidin-6(7H)-one] | 116 | 89 |  |
| Nc1nc(-c2cn3cc(C(F)(F)F)nc3c(Cc3cccc(F)c3F)n2)nc2c1C(C(=O)NC1CC1)(C1CC1)C(=O)N2 (stereo not shown) [Example 48B, 4-amino-N,5-dicyclopropyl-2-(8-(2,3-difluorobenzyl)-2-(trifluoromethyl)imidazo[1,2-a]pyrazin-6-yl)-6-oxo-6,7-dihydro-5H-pyrrolo[2,3-d]pyrimidine-5-carboxamide] | 93 | 442 |  |

Source: US9796733B2, “Imidazo-pyrazine derivatives useful as soluble guanylate cyclase activators” (Merck Sharp & Dohme Corp., priority 2014, dated 2017)
